Holding throughout (format): biochemical
For assay [1], the target named is MET (Homo sapiens, UniProt P08581). Nature of the assay: Kinase panel inhibition. The note with it: @ 10 μM inhibitor; read-out: MET kinase inh. The method, then:
(§1) Percentage Inhibition of the Kinase at 10 μM Concentration of the Inhibitor
(§2) Paul W. Manley, Pascal Furet, Guido Bold, Josef Brüggen, Jürgen Mestan, Thomas Meyer, Christian R. Schnell, and Jeanette Wood; Anthranilic Acid Amides: A Novel Class of Antiangiogenic VEGF Receptor Kinase Inhibitors J. Med. Chem. 2002, 45, 5687-5693. Wan, Yongqin; Hur, Wooyoung; Cho, Charles Y.; Liu, Yi; Adrian, Francisco J.; Lozach, Olivier; Bach, Stephane; Mayer, Thomas; Fabbro, Doriano; Meijer, Laurent; Gray, Nathanael S; Synthesis and Target Identification of Hymenialdisine Analogs Chemistry & Biology 2004, 11(2), 247-259.

Assay [2] addresses IGF (Homo sapiens, UniProt P08069). Nature of the assay: Kinase panel inhibition. As to conditions: @ 10 μM inhibitor; read-out: IGF kinase inh. The method, then: as §1, §2
For assay [3], the target named is KIT (Homo sapiens, UniProt P10721). The assay can be described thus: Kinase panel inhibition. The note with it: @ 10 μM inhibitor; read-out: KIT kinase inh. The method, then: as §1, §2
Assay [4] has as its target HER2 (Homo sapiens, UniProt P04626). Nature of the assay: Kinase panel inhibition. As to conditions: @ 10 μM inhibitor; read-out: HER2 kinase inh. The protocol:
as §1, §2

In assay [5] the target is HER1 (Homo sapiens, UniProt P00533). The assay can be described thus: Kinase panel inhibition. As to conditions: @ 10 μM inhibitor; read-out: HER1 kinase inh. The protocol:
as §1, §2

The target in assay [6] is T1, PDK1 (Homo sapiens, UniProt O15530).
T1 sequence (O15530 1-556): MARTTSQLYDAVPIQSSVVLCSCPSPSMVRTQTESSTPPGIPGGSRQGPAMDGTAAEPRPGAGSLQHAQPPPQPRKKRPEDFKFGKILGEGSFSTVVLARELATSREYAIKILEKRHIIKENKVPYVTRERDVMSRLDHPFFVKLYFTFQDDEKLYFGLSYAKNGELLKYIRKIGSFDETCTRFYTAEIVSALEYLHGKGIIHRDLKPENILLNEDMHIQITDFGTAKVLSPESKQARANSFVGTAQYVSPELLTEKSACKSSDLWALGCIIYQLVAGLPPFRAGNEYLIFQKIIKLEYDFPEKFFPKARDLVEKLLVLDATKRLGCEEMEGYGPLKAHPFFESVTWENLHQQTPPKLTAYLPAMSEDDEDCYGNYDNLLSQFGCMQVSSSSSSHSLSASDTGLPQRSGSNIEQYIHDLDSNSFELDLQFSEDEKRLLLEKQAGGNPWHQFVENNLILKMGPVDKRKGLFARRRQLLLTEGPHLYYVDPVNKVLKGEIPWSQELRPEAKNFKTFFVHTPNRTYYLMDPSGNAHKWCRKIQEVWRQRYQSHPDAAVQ
The assay can be described thus: Kinase panel inhibition. The note with it: @ 10 μM inhibitor; read-out: PDK1 kinase inh. The method, then:
as §1, §2

The target in assay [7] is Tek (Homo sapiens, UniProt Q02763). The assay can be described thus: Kinase panel inhibition. As to conditions: @ 10 μM inhibitor; read-out: Tek kinase inh. The method, then:
as §1, §2

The target of assay [8] is Flt-4 (Homo sapiens, UniProt P35916). Nature of the assay: Kinase panel inhibition. As to conditions: @ 10 μM inhibitor; read-out: Flt-4 kinase inh. The protocol:
as §1, §2

In assay [9] the target is Flt-1 (Homo sapiens, UniProt P17948). Nature of the assay: Kinase panel inhibition. The note with it: @ 10 μM inhibitor; read-out: Flt-1 kinase inh. The method, then: as §1, §2
For assay [10], the target named is PKB (Homo sapiens, UniProt P31749). The assay can be described thus: Kinase panel inhibition. The note with it: @ 10 μM inhibitor; read-out: PKB kinase inh. The protocol:
as §1, §2

Assay [11] concerns FGFR. Nature of the assay: Kinase panel inhibition. As to conditions: @ 10 μM inhibitor. The protocol:
as §1, §2

The target in assay [12] is ABL (Homo sapiens, UniProt P00519). The assay can be described thus: Kinase panel inhibition. As to conditions: @ 10 μM inhibitor; read-out: ABL kinase inh. The method, then:
as §1, §2

Assay [13] deals with Raf-1 (Homo sapiens, UniProt P04049). Nature of the assay: Kinase panel inhibition. The note with it: @ 10 μM inhibitor; read-out: Raf-1 kinase inh. The protocol:
as §1, §2

Assay [14] addresses KDR (Homo sapiens, UniProt P35968). The assay can be described thus: Kinase panel inhibition. As to conditions: @ 10 μM inhibitor; read-out: KDR kinase inh. The protocol: as §1, §2
For assay [15], the target named is T2, human topoisomerase II α (Homo sapiens, UniProt P11388).
T2 construct: purchased Professor Neil Osheroff (Vanderbilt University, Nashville, Tenn., USA)
Nature of the assay: Topoisomerase II ATPase assay (Malachite Green). The note with it: for inhibition at 10 µM: Percent inhibition @10 μM, Malachite Green assay, read-out: TOPO II inh. (inhibition of the TOPO ATPase activity). The protocol:
The inhibition of topoisomerase II is measured as follows:
Purified human topoisomerase II α was purchased from Professor Neil Osheroff (Vanderbilt University—Nashville, Tenn., USA).
The pUC18 (Stratagene) plasmid was introduced into Escherichia coil XL-1 (Stratagene) and purified with the HiSpeed Plasmid Purification kit (Qiagen) according to the manufacturer instructions. The purity of the DNA preparations was evaluated spectrophotometrically (OD260/OD280 ratio) and by agarose gel.
Preparation of the Malachite Green Reagent:
Three volumes of 0.045% malachite green (Sigma, catalog no. M-9636) diluted in water are mixed for 20 min at room temperature with one volume of 4.2% ammonium molybdate (Axon Lab AG, catalog no. A-2246) diluted in 4 N HCl. After mixing, Triton X-100 (Merck, catalog no. 1.12298) is added to a final concentration of 0.01%. The solution is filtered at 0.2 μm and stored at room temperature in the dark.
ATP hydrolysis was monitored by measuring the production of inorganic phosphate released during the catalytic cycle of topoisomerase II α with acidic molybdate and malachite green (Lanzetta,et al., An improved assay for nanomole amounts of inorganic phosphate, Anal Biochem 1979;100:95-7). Briefly, human topoisomerase II α is pre-incubated at 37° C. for 10 min in 90 μl reaction buffer (10 mM Tris.HCl pH 7.9, 175 mM KCl, 1 mM EDTA, 2 mM DTT, 5 mM MgCl2, 2.5% glycerol) in the presence of the indicated amount of pUC18 and DMSO in F96 maxisorp Nunclmmuno plates (Nunc). The reaction is initiated by the addition of 10 μl ATP at the indicated concentrations and is carried out for 30 min at 37° C. under constant agitation. The reaction is stopped by the addition of 200 μl molybdate/malachite green solution and the absorbance is immediately measured at 630 nm. The OD630 value is measured in the absence of protein for each ATP concentration (background) is subtracted from the value obtained in the presence of enzyme. A standard curve with inorganic phosphate is used to determine the amount of inorganic phosphate produced during the reaction and to ensure that the measures are in the linear range of the assay. The kinetic parameters of the enzymes are determined from measurements (at least in duplicate) of the initial rates at different ATP concentrations. The data are analyzed with GraFit (Erithacus Software).
The compounds are tested at 10 μM of concentration to determine their inhibition potential given % of inhibition of the TOPO II ATPase activity.
For the determination of the IC50, the procedure is repeated for different concentrations of test compound selected to cover the range of 0% to 100% inhibition and the concentration at which 50% inhibition of topoisomerase II occurs (IC50) for each compound is determined from concentration-inhibition curves in a conventional manner.

Assay [16] has as its system PKA. The assay can be described thus: Kinase panel inhibition. The note with it: @ 10 μM inhibitor. The method, then: as §1, §2

Sequence of PKB (P31749 whole entry, species assumed): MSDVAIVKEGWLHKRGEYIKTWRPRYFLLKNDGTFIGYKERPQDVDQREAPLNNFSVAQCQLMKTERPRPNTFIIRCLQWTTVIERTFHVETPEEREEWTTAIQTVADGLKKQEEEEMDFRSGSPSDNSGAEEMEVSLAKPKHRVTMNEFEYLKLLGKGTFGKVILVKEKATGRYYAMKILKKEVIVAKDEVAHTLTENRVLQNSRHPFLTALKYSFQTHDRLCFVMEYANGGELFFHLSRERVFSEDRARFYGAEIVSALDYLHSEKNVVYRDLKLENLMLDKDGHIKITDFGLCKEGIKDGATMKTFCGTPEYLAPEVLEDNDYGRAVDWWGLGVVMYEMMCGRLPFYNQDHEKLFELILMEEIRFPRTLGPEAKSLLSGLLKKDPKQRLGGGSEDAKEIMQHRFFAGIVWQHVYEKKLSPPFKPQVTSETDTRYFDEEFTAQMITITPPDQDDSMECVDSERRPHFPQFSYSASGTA
Sequence of MET (P08581 25-1390): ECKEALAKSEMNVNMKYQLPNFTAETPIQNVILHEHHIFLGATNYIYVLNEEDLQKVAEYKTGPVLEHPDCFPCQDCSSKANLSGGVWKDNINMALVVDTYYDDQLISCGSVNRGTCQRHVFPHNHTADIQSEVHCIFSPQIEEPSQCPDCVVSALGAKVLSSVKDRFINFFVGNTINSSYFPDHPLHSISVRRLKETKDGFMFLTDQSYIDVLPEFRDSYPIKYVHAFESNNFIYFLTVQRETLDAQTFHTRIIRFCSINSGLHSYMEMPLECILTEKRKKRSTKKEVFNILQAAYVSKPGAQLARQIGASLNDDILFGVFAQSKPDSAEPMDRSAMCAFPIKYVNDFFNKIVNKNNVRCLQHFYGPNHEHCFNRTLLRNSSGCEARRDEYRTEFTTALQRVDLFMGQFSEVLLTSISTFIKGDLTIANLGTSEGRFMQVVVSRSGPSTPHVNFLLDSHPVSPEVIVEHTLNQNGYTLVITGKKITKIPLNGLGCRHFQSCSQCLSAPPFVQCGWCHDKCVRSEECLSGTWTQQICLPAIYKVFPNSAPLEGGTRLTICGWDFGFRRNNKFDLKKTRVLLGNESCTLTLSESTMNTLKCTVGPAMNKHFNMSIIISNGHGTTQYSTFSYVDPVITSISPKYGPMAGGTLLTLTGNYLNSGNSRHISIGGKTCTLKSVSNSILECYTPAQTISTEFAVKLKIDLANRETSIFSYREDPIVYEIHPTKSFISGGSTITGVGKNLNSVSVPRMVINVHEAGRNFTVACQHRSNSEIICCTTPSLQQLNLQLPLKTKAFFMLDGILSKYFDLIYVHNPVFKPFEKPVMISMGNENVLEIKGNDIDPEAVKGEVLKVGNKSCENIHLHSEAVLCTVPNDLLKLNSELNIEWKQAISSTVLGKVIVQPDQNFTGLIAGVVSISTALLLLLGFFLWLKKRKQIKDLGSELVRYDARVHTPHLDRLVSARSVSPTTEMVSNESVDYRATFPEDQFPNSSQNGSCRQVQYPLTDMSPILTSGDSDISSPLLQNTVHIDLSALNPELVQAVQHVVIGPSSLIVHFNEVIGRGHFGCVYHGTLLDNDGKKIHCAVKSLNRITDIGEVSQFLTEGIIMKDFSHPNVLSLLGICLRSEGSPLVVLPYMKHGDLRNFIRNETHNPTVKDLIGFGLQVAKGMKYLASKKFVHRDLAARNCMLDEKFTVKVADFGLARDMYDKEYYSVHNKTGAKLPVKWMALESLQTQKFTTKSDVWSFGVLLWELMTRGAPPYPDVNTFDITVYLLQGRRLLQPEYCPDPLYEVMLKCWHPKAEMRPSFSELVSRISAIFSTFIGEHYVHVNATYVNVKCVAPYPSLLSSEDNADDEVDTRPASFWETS
T2 sequence (P11388 whole entry): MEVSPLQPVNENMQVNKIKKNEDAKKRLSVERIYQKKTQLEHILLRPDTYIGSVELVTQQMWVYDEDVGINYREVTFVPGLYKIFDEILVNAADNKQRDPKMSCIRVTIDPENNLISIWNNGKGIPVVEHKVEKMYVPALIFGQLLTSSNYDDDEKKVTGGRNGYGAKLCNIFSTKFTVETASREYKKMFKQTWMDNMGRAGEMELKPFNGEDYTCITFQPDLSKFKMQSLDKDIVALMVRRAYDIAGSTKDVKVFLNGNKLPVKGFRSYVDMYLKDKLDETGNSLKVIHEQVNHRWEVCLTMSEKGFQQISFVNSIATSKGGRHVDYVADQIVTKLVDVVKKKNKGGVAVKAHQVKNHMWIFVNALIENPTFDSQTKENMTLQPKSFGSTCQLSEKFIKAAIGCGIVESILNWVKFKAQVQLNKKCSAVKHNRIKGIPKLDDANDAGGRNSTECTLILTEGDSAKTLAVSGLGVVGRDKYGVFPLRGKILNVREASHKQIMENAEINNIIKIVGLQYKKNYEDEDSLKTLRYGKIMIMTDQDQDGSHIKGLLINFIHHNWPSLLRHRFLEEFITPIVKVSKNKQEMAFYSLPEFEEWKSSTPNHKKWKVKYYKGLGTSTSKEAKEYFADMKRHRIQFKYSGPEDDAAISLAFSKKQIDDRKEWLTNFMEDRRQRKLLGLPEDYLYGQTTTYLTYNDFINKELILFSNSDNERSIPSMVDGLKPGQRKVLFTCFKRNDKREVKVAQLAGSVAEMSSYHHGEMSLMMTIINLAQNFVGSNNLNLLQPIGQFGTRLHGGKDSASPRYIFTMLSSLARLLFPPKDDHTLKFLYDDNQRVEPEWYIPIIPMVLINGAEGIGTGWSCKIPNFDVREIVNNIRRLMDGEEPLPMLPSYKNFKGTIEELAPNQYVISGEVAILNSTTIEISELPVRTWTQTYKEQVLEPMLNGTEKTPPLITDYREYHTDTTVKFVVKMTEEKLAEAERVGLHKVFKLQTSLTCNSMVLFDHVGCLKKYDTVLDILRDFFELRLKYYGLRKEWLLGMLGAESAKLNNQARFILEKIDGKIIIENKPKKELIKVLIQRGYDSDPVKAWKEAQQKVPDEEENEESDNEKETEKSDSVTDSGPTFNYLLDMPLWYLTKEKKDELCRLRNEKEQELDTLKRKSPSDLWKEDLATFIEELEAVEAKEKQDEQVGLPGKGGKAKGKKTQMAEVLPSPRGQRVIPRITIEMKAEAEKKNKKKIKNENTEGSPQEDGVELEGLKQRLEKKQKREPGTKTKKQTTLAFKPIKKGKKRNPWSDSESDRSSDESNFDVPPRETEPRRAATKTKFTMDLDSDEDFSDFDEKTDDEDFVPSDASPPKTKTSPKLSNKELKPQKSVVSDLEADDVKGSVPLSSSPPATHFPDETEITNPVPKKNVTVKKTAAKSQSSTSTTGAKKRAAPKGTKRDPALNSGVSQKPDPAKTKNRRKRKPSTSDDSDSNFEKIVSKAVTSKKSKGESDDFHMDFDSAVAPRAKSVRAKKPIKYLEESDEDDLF
Sequence of Raf-1 (P04049 whole entry, species assumed): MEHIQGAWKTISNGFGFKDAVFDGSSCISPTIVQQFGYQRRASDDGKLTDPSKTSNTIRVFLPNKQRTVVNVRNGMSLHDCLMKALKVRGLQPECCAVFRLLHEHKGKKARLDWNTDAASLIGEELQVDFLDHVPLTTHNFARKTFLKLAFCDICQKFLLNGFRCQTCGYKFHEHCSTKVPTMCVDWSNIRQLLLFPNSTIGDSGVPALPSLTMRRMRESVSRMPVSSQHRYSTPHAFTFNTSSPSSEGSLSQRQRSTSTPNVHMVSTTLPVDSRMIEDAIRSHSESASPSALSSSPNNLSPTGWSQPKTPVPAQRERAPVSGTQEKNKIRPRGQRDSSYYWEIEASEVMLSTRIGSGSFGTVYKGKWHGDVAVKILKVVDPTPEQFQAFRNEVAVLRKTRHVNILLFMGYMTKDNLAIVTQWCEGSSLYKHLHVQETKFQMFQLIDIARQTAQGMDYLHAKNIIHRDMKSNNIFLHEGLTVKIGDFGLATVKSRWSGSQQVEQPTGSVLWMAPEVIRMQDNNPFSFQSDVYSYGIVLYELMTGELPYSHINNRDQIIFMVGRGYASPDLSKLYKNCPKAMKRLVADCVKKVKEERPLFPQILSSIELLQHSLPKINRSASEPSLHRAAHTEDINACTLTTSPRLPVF
Sequence of KIT (P10721 26-976, species assumed): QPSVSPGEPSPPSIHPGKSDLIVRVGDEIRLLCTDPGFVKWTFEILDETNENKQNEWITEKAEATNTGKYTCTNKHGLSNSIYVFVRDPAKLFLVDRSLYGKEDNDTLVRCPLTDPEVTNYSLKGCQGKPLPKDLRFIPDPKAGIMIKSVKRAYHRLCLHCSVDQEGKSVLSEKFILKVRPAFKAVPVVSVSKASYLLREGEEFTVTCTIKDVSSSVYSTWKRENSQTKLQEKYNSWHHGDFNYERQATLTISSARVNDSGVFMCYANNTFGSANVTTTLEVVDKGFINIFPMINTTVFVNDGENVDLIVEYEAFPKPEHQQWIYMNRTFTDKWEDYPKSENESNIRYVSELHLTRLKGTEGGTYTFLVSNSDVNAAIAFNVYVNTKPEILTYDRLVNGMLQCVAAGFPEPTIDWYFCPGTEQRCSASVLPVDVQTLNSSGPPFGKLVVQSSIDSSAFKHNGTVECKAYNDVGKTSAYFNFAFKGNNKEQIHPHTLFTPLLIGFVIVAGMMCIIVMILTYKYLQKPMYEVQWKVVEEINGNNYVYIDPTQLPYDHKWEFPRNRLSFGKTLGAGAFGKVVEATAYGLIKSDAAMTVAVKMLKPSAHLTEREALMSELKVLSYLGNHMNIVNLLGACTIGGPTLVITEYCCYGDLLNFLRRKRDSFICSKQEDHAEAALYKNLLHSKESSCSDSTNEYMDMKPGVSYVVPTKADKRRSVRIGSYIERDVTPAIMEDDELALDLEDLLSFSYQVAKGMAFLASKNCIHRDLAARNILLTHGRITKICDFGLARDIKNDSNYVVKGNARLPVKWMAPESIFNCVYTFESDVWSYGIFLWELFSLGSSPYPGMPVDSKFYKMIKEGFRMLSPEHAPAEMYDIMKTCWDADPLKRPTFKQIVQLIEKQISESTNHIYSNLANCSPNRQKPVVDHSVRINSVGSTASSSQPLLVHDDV

Turning to `CC(C)(C)Nc1nc(Nc2ccc3ncsc3c2)nc2[nH]cnc12` [Example 14, N*2*-Benzothiazol-6-yl-N*6*-tert-butyl-9H-purine-2,6-diamine], the inhibition at 10 µM in assay [1] is at least 80%; in assay [2], at least 80%; in assay [3] it was at least 80%; in assay [4] it was 65 to 80%; in assay [5] it was 65 to 80%; in assay [6] it was at least 80%. Moreover, the inhibition at 10 µM in assay [7] is at least 80%; in assay [8], at least 80%; in [9] it was 65 to 80%; in assay [10], 50 to 65%; in assay [12] it was at least 80%; in assay [13], 65 to 80%. In addition, the inhibition at 10 µM in [14] was at least 80%. Besides, the FGFR kinase inh. entry in assay [11] is reported as “++ (<80% ≧ 65%)”.

For `Cc1nc2c(NC(C)(C)C)nc(Nc3ccc4ncsc4c3)nc2[nH]1` [Example 25, N*2*-Benzothiazol-6-yl-N*6*-tert-butyl-8-methyl-9H-purine-2,6-diamine], in [15], 2.1 µM corresponded to half-maximal inhibition (IC50). Moreover, the inhibition at 10 µM in [15] is 65 to 80%; in assay [1], below 50%; in assay [2], below 50%; in [3], below 50%; in assay [4], below 50%; in assay [5] it was below 50%. Besides, the inhibition at 10 µM is below 50% in assay [6]; below 50% in assay [7]; below 50% in assay [8]; below 50% in assay [9]; below 50% in assay [10]; 65 to 80% in assay [12]. Moreover, the inhibition at 10 µM in [13] is below 50%; in [14], 50 to 65%. The PKA kinase inh. entry in [16] is given as “+ (<65% ≧ 50%)”.

`CCc1nc2c(NC(C)(C)C)nc(Nc3ccc4ncsc4c3)nc2[nH]1` [Example 27, N*2*-Benzothiazol-6-yl-N*6*-tert-butyl-8-ethyl-9H-purine-2,6-diamine]: in assay [15], the IC50 stood at 0.6 µM. For the same molecule, the inhibition at 10 µM is at least 80% in [15]; below 50% in assay [1]; below 50% in assay [2]; below 50% in assay [3]; below 50% in assay [4]; below 50% in assay [5]. For the same molecule, the inhibition at 10 µM in assay [6] is below 50%; in [7], 65 to 80%; in assay [8], below 50%; in [9] it was below 50%; in assay [10] it was below 50%; in [12], 50 to 65%. The inhibition at 10 µM is below 50% in assay [13] and 50 to 65% in assay [14].

With `C=CCc1nc2c(NC(C)(C)C)nc(Nc3ccc4ccccc4c3)nc2[nH]1` [Example 71, 8-Allyl-N*6*-tert-butyl-N*2*-naphthalen-2-yl-9H-purine-2,6-diamine], the inhibition at 10 µM in assay [15] is below 50%.

Take `Cc1nc2c(NC(C)(C)C)nc(Nc3ccc4ccccc4c3)nc2[nH]1` [Example 72, N*6*-tert-Butyl-8-methyl-N*2*-naphthalen-2-yl-9H-purine-2,6-diamine]: in assay [15], the inhibition at 10 µM was below 50%.

For the molecule `CCc1nc2c(NC(C)(C)C)nc(Nc3ccc4ccccc4c3)nc2[nH]1` [Example 73, N*6*-tert-Butyl-8-ethyl-N*2*-naphthalen-2-yl-9H-purine-2,6-diamine], in assay [15], the inhibition at 10 µM was below 50%.

Turning to `CC(C)Cc1nc2c(NC(C)(C)C)nc(Nc3ccc4ccccc4c3)nc2[nH]1` [Example 74, N*6*-tert-Butyl-8-isobutyl-N*2*-naphthalen-2-yl-9H-purine-2,6-diamine], the inhibition at 10 µM in assay [15] was below 50%.

As usually defined, the IC50 is the point on the concentration scale where inhibition reaches its midpoint. A lower IC50 goes with greater potency.

The values above are taken from patent US20070249639A1, “Use of 9H-Purine-2,6-Diamine Derivatives in the Treatment of Proliferative Diseases and Novel 9H-Purine-2,6-Diamine Derivatives” (priority 2004, published 2007).
